Test results: patent publication US9862674B2, “Therapeutic compounds and methods of use” (University of Florida Research Foundation, Inc., priority 2007, dated 2018)

Assays:
[1] = target: T1, 5HT2A receptor (Homo sapiens, UniProt P28223); test: PLC/[3H]-IP formation in CHO cells transiently transfected with human 5HT2A cDNA (agonist and antagonist mode); type: cell-based; set-up: host or cells: CHO-K1 (ATCC CCL-61), transient transfection
[2] = target: T2, 5HT2C receptors (Homo sapiens, UniProt P28335); test: Radioreceptor saturation and competition binding, [3H]-mesulergine labeled 5-HT2C receptor membranes from transfected CHO-K1 cells
T2 sequence (P28335 33-458): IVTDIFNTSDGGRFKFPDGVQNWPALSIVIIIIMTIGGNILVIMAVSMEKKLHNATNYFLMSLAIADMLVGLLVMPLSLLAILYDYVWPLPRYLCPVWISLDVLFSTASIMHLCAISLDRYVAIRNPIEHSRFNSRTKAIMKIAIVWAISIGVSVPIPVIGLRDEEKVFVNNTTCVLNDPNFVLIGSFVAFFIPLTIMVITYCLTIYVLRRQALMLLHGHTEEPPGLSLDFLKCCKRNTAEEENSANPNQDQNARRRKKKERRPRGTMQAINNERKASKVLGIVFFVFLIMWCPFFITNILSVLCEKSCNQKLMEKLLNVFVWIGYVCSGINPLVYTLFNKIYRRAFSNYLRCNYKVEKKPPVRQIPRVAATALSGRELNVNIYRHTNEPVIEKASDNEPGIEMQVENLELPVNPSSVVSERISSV

[3] = target: T1, 5HT2A receptor; test: PDSP (2005) 5HT2A receptor-mediated PLC/[3H]-IP formation; type: cell-based; conditions: concentrations to 10 μM; not shown
[4] = target: T2, 5HT2C receptors; test: PDSP (2005) functional activity of APTs at 5HT2C receptors; type: cell-based; conditions: preliminary data
[5] = tested on: cocaine self-administration; conditions: rat; cited from earlier work
[6] = target: T1, 5HT2A receptor; test: Radioreceptor saturation and competition binding, [3H]-ketanserin labeled 5-HT2A receptor membranes from transfected CHO-K1 cells; set-up: host or cells: CHO-K1 (ATCC CCL-61), transient transfection; conditions: saturation binding
[7] = tested on: 5HT2C receptors over 5HT2A receptors; conditions: in vitro; cited from earlier work

T1 sequence (P28223 whole entry): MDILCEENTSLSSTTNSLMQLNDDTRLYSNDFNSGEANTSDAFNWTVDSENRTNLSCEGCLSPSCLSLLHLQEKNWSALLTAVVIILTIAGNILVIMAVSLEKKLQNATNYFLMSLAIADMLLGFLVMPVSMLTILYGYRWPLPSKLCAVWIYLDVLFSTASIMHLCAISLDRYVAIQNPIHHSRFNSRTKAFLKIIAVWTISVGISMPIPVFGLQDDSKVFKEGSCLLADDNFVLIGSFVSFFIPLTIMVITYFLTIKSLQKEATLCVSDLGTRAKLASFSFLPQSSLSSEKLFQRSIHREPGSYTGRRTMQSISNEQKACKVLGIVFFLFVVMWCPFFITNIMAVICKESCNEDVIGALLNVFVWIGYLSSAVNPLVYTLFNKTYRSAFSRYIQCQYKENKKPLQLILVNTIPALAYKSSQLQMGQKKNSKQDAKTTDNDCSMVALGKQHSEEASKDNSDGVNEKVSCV

NCCc1c[nH]c2ccc(O)cc12 [5-HT, 5-hydroxytryptamine]
5HT2A PLC/[3H]-IP formation stimulated by agonist ([1]; 5-HT 1.0 μM): ~250 % basal control
maximal PLC/[3H]-IP formation, 5HT2A ([1]; at Emax concentration): ~300 % basal control activity

CN(C)C1CCc2c(cccc2-c2ccccc2)C1 (stereo not shown) [32 (5APT)]
Ki [2]: 320 ± 11 nM
activation of 5HT2A receptor-mediated PLC/[3H]-IP formation (PDSP) [3]: did not activate
EC50 [4]: ~80 nM
Emax at 5HT2C (PDSP) [4]: ~75 % 5HT value
functional character at 5HT2C (PDSP) [4]: moderate potency partial agonist

CN(C)C1CCc2c(cccc2-c2cccc(C(F)(F)F)c2)C1 (stereo not shown) [33 (CF3^−5APT)]
Ki [2]: ~190 nM

CN(C)C1CCc2c(cccc2-c2cccc(Cl)c2)C1 (stereo not shown) [35 (Cl-5APT)]
Ki [2]: ~220 nM

CN(C)C1CCc2cc(-c3ccccc3)ccc2C1 (stereo not shown) [36 (6APT)]
Ki [2]: 1800 nM

CN(C)C1CCc2cc(-c3cccc(C(F)(F)F)c3)ccc2C1 (stereo not shown) [37 (CF3^−6APT)]
Ki [2]: ~1500 nM

CN(C)C1CCc2cc(-c3cccc(Br)c3)ccc2C1 (stereo not shown) [40 (Br-6APT)]
Ki [2]: 540 ± 10 nM

COc1cccc([C@H](O)C2CCN(CCc3ccc(F)cc3)CC2)c1OC [M100907]
effect on rate of cocaine self-administration [5]: does not alter responding rate

Cc1cc2c(cc1Cl)N(C(=O)Nc1ccc(Oc3cccnc3C)nc1)CC2 [SB242084]
effect on rate of cocaine self-administration [5]: increases the rate of cocaine self-administration dose-dependently

[3H]C([3H])(N1CCC(C(=O)c2ccc(F)cc2)CC1)C([3H])([3H])n1c(=O)[nH]c2ccccc2c1=O [[^3H]-Ketanserin]
Bmax of 5HT2A receptors labeled [6]: 1.73±0.11 pmol/mg protein

C[C@H]1CNCCc2ccc(Cl)cc21 [lorcaserin]
selectivity for activation of 5HT2C receptors over 5HT2A receptors [7]: 15 fold
